From US10087144B2, “Agents for use in the treatment of cardiovascular and inflammatory diseases structurally based on 4(1 H)-quinolone” (UCL Business PLC, priority 2015, dated 2018)
Read-outs that look alike come from different tables or passages of the source.

Columns and labels:
[1] = tested on: rat mesenteric artery smooth muscle cells; test: Ca2+ flux in response to Angiotensin II in isolated rat mesenteric artery smooth muscle cells (FLIPR); assay type: cell-based; settings: for inhibition at 1 µM / inhibition at 10 µM: Rattus norvegicus; for inhibition at 1 µM: read-out: % inhibition 1 μM; for inhibition at 10 µM: read-out: % inhibition 10 μM
Protocol: Mesenteric artery smooth muscle cells were isolated from male Sprague-Dawley rats (200-250 g). Mesenteric arteries were dissected, cleared of extraneous tissue and incubated in an enzyme solution containing collagenase type I (1 mg/ml), soybean trypsin inhibitor (0.25 mg/ml), bovine albumin (1 mg/ml), CaCl2 (0.2 mM), 100 U/ml penicillin (100 U/ml) and streptomycin (100 μg/ml) in a humidified incubator with 5% CO2 in air. The enzyme solution was replenished at 30 min intervals and cells were pelleted by centrifugation (200 g, 5 min) and differentially plated (×2) for 15 min in Dulbecco's Modified Eagle's Medium (DMEM) supplemented with penicillin (100 U/ml), streptomycin (100 μg/ml), L-Glutamine (2 mM) and 10% heat inactivated New Zealand foetal calf serum. Cells were passaged by trypsinisation and viability determined by trypan blue exclusion.
Measurements of Ca^2+ flux in response to Angiotensin II were conducted using a Fluorescent Imaging Plate Reader (FLIPR; Molecular Devices). Cells were plated at a density of 10,000 cells/well into black, clear-bottomed 96-well plates in DMEM supplemented with penicillin (100 U/ml), streptomycin (100 μg/ml), L-Glutamine (2 mM) and 10% heat inactivated New Zealand foetal calf serum. 24 hrs later the cells were incubated with Fluo-3-AM (4 μM) for 60 min at 37° C. Once dye-loaded, the cells were washed thoroughly with the proprietary assay buffer to remove any unincorporated dye. The cells were then incubated with varying concentrations of a number of representative NPR-C agonist molecules of the invention, C-type natriuretic peptide or vehicle (DMSO) and placed into the FLIPR. After 15 mins, Angiotensin II (100 nM) was automatically dispensed into each well and the fluorescence signal followed for 5 mins. Potency was determined by comparison of the peak fluorescence in each test well (run in triplicate) with that of the control (Angiotensin II alone). Background fluorescence (assay buffer only) was subtracted from all values.

rat mesenteric arteries = test: Vasoreactivity in rat mesenteric arteries in vitro (relaxation of U46619-contracted vessels, tension myograph); settings: for EC50: vasorelaxation, calculated from concentration-response curves
Protocol: Male rats (Sprague-Dawley; 200-250 g) were stunned and killed by cervical dislocation. The mesentery was removed and third-order arteries mounted in an automated tension myograph (Danish Myotechnology). After an equilibration period of 45 min, vessels were normalized and diameter determined. Following normalization, each vessel was contracted repeatedly with the thromboxane A2-mimetic 9,11-dideoxy-11^α,9^α-epoxymethano-prostaglandin F2α (U46619; 1 μM) until the response was reproducible. The vessels were then washed to restore basal tone before contracting to approximately 50% of the maximum U46619-induced response. Once a stable response to U46619 was achieved, cumulative concentration-response curves were constructed with a variety of NPR-C agonists of the invention at varying concentrations (0.001-30 μM), or vehicle (DMSO). In some studies, concentration-response curves to NPR-C agonists were conducted in the presence of the NPR-C antagonist M372049 (10 μM). Only one curve to any one agonist was constructed in any single tissue.

Human NPR-C = Human NPR-C (Homo sapiens (Human), UniProt P17342); test: Surface plasmon resonance (SPR) spectroscopy, binding to immobilised human NPR-C; settings: FIGS. 5, 6 and 7
Sequence of Human NPR-C (P17342 27-541): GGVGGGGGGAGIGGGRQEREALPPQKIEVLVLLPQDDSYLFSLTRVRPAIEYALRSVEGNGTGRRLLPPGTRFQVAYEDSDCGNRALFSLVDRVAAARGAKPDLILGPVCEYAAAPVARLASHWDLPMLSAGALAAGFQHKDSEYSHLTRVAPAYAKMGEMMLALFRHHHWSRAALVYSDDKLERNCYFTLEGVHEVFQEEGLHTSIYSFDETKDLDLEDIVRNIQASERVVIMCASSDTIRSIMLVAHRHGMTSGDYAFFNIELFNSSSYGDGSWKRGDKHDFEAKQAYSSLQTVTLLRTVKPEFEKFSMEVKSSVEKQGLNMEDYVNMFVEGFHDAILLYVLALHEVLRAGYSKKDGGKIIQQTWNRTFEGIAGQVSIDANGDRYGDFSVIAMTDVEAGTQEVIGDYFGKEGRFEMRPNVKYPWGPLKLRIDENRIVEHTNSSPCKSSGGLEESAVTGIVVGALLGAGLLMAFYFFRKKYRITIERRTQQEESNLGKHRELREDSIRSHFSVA
Protocol: All SPR analysis was performed on a BIAcore T200 system using series S CM5 sensor chips. Data processing and analysis were performed using BIAevaluation software and Scrubber2. All sensorgrams were double referenced by subtracting the response on a reference flowcell and a blank sample.
Human NPR-C (OriGene, Rockville, USA), was covalently attached to a CM5 chip via amine coupling. A surface density of 2700 RU was used for measurements with natriuretic peptides and the NPR-C antagonist M372049, and a density of 5200 RU for measurements with compound 118. Sequential injections of CNP (0.25, 0.50, 1, 2 & 4 nM) were performed at a flow rate of 30 μL/min for (240 s for each), followed by a dissociation time of 3600 s. Binding site saturation was observed and the surface was regenerated by two injections of 1M NaCl (200 s each). Binding of M372049 (0.94, 1.88, 3.75, 7.5, 15, 30 & 60 nM) and Compound 118 (1.17, 2.34, 4.70, 9.38, 18.75, 37.50, 75 & 150 μM) was analysed by sequential injections (120 s for M372049, 30 s for compound 118) followed by undisturbed dissociation (600 s for M372049, 30 s for compound 118), during which curves returned to baseline. Kinetic parameters were calculated assuming a simple 1:1 (Langmuir) binding.

[2] = 1 μM compound, inhibition of Angiotensin II (100 nM) Ca2+ flux peak fluorescence
[3] = 10 μM compound, inhibition of Angiotensin II (100 nM) Ca2+ flux peak fluorescence
[4] = 1 μM, U46619-contracted third-order arteries
[5] = 3 μM, U46619-contracted third-order arteries
[6] = 10 μM, U46619-contracted third-order arteries
[7] = 30 μM, U46619-contracted third-order arteries

| SMILES | % inhibition 1 μM [1, 2] [%] | % inhibition 10 μM [1, 3] [%] | inhibition at 1 µM [1, 2] [%] | inhibition at 10 µM [1, 3] [%] | further results |
| --- | --- | --- | --- | --- | --- |
| CC(C)(C)OC(=O)CNC(=O)c1cn(Cc2ccccc2)c2ccc(Br)cc2c1=O [Compound 62] | 0 | 50 | – | – | – |
| CC1CCc2c(N3CCC(O)CC3)c(F)c(N)c3c(=O)c(C(=O)O)cn1c23 (centres unmarked) [Compound 142] | 18 | 75 | – | – | – |
| CCOC(=O)c1c[nH]c2ccccc2c1=O [Compound 84, ethyl 4-oxo-1,4-dihydroquinoline-3-carboxylate] | – | – | – | – | inhibition at 1 µM [1]: 40%; inhibition at 10 µM [1]: 45% |
| O=C(O)c1ccc2c(=O)c(C(=O)O)c[nH]c2c1 [Compound 106] | 90 | 90 | – | – | – |
| CC(C)[C@H](NC(=O)c1cn(Cc2ccccc2)c2ccc(Br)cc2c1=O)C(=O)OC(C)(C)C [Compound 63, (S)-tert-butyl 2-(1-benzyl-6-bromo-4-oxo-1,4-dihydroquinoline-3-carboxamido)-3-methylbutanoate] | – | – | 58 | 100 | – |
| CC(C)C[C@H](NC(=O)c1cn(Cc2ccccc2)c2ccc(Br)cc2c1=O)C(=O)OC(C)(C)C [Compound 60, (S)-tert-butyl 2-(1-benzyl-6-bromo-4-oxo-1,4-dihydroquinoline-3-carboxamido)-4-methylpentanoate] | – | – | 0 | 80 | – |
| CC(C)(C)OC(=O)[C@H](Cc1ccccc1)NC(=O)c1cn(Cc2ccccc2)c2ccc(Br)cc2c1=O [Compound 61, (S)-tert-butyl 2-(1-benzyl-6-bromo-4-oxo-1,4-dihydroquinoline-3-carboxamido)-3-phenylpropanoate] | – | – | 27 | 100 | – |
| C[C@H](NC(=O)c1cn(Cc2ccccc2)c2ccc(Br)cc2c1=O)C(=O)OC(C)(C)C [Compound 59, (S)-tert-butyl 2-(1-benzyl-6-bromo-4-oxo-1,4-dihydroquinoline-3-carboxamido)propanoate] | – | – | 20 | 90 | – |
| CC(C)C(NC(=O)c1cn(Cc2ccccc2)c2ccc(Br)cc2c1=O)C(=O)O (centres unmarked) [Compound 119] | 80 | 100 | – | – | % relaxation 1 μM (rat mesenteric arteries; [4]): 2%; % relaxation 3 μM (rat mesenteric arteries; [5]): 5%; % relaxation 10 μM (rat mesenteric arteries; [6]): 26%; % relaxation 30 μM (rat mesenteric arteries; [7]): 94%; EC50 (rat mesenteric arteries): > 50 µM |
| O=C(O)c1c[nH]c2ccc(Br)cc2c1=O [Compound 113] | 12 | 100 | – | – | – |
| O=C(O)c1cn(Cc2ccccc2)c2ccccc2c1=O [Compound 86, 1-benzyl-4-oxo-1,4-dihydroquinoline-3-carboxylic acid] | – | – | 0 | 45 | – |
| CC(C)[C@H](NC(=O)c1cn(Cc2ccccc2)c2ccccc2c1=O)C(=O)OC(C)(C)C [Compound 88, (S)-tert-butyl 2-(1-benzyl-4-oxo-1,4-dihydroquinoline-3-carboxamido)-3-methylbutanoate] | – | – | 12 | 55 | – |
| CCOC(=O)c1cn(Cc2ccccc2)c2ccccc2c1=O [Compound 85, ethyl 1-benzyl-4-oxo-1,4-dihydroquinoline-3-carboxylate] | – | – | 0 | 97 | – |
| CC1COc2c(N3CCN(C)CC3)c(F)cc3c(=O)c(C(=O)O)cn1c23 (centres unmarked) [Compound 136] | 15 | 20 | – | – | – |
| O=C(O)c1c[nH]c2cc(C(F)(F)F)ccc2c1=O [Compound 110] | 70 | 100 | – | – | – |
| O=C(O)c1c[nH]c2ccccc2c1=O [Compound 57] | 0 | 35 | – | – | – |
| Cc1cccc2c(=O)c(C(=O)O)c[nH]c12 [Compound 107] | 15 | 100 | – | – | – |
| CC[C@H](C)[C@H](NC(=O)[C@@H](CCCN=C(N)N)NC(=O)[C@H](CC(=O)O)NC(=O)[C@H]([C@@H](C)CC)N1CC[C@@H](NC(=O)Cc2ccc(NC(=O)c3cnc4ccccc4n3)cc2)C1=O)C(N)=O [Compound M372049] | – | – | – | – | binding to human NPR-C (SPR) (Human NPR-C): binding |
| O=C(O)CNC(=O)c1cn(Cc2ccccc2)c2ccccc2c1=O [Compound 117, 2-(1-benzyl-4-oxo-1,4-dihydroquinoline-3-carboxamido)acetic acid] | – | – | 87 | 100 | inhibition at 1 µM (rat mesenteric arteries; Rattus norvegicus, 1 μM, U46619-contracted third-order arteries): 0%; inhibition at 3 µM (rat mesenteric arteries; Rattus norvegicus, 3 μM, U46619-contracted third-order arteries): 0%; inhibition at 10 µM (rat mesenteric arteries; Rattus norvegicus, 10 μM, U46619-contracted third-order arteries): 2%; inhibition at 30 µM (rat mesenteric arteries; Rattus norvegicus, 30 μM, U46619-contracted third-order arteries): 42%; EC50 (rat mesenteric arteries; Rattus norvegicus): > 50 µM |
| O=C(O)c1cn(Cc2ccccc2)c2ccc(Br)cc2c1=O [Compound 27, 1-benzyl-6-bromo-4-oxo-1,4-dihydroquinoline-3-carboxylic acid] | – | – | 0 | 50 | – |
| CN(C)c1ccc2[nH]cc(C(=O)O)c(=O)c2c1 [Compound 108] | 0 | 90 | – | – | – |
| CC(C)C(NC(=O)c1cn(Cc2ccccc2)c2ccccc2c1=O)C(=O)O (centres unmarked) [Compound 116] | 80 | 100 | – | – | % relaxation 1 μM (rat mesenteric arteries; [4]): 4%; % relaxation 3 μM (rat mesenteric arteries; [5]): 0%; % relaxation 10 μM (rat mesenteric arteries; [6]): 0%; % relaxation 30 μM (rat mesenteric arteries; [7]): 9% |
| CC(=O)c1ccc2[nH]cc(C(=O)O)c(=O)c2c1 [Compound 105] | 80 | 100 | – | – | – |
| CN1CCN(c2cc3c(cc2F)c(=O)c(C(=O)O)cn3-c2ccc(F)cc2)CC1 [Compound 144] | 23 | 40 | – | – | – |
| O=C(O)c1c[nH]c2c(C(=O)O)cccc2c1=O [Compound 109] | 18 | 100 | – | – | – |
| CC1COc2c(N3CCN(C)CC3)c(F)cc3c(=O)c(C(=O)O)cn1c23 (centres unmarked) [Compound 138] | 11 | 40 | – | – | – |
| O=C(O)c1c[nH]c2ccc(F)cc2c1=O [Compound 114] | 100 | 100 | – | – | – |
| O=C(O)c1cn(C2CC2)c2cc(N3CCNCC3)c(F)cc2c1=O [Compound 134] | 55 | 80 | – | – | – |
| O=C(O)c1ccc2[nH]cc(C(=O)O)c(=O)c2c1 [Compound 111] | 100 | 100 | – | – | – |
